# Measurements taken from ChEMBL document CHEMBL5331068, “Briarane-type diterpenoids, the inhibitors of osteoclast formation by interrupting Keap1-Nrf2 interaction and activating Nrf2 pathway” (Eur J Med Chem, 2023).
# Activity calls are given as the source filed them. The rule behind the calls is not given here.
# Molecular target: Transcription factor p65 (Mus musculus) (UniProt Q04207)
# Test: Inhibition of RANKL-induced p65 NF-kappaB phosphorylation in C57BL/6 mouse BMDM cells transfected with Nrf2 siRNA at 10 uM incubated for 60 mins by Western blot analysis
# Format: cell-based
# Transcription factor p65 (Mus musculus), sequence (Q04207 whole entry): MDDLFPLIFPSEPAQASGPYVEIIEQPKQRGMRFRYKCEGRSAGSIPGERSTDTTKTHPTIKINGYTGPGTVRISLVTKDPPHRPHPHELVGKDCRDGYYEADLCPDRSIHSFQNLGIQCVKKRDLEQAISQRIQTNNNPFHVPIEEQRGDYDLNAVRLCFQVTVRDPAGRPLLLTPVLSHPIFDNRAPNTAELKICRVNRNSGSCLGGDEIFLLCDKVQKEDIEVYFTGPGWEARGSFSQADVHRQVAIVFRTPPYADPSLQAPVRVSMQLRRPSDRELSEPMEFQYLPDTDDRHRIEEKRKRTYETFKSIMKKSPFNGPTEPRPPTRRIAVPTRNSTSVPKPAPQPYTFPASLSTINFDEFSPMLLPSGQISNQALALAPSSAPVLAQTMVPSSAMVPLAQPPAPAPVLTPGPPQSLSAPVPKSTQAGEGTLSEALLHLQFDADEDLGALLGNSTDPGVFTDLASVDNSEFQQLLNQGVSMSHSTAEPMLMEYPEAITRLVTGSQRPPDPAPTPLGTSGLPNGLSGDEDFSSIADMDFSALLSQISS
smiles,measurement,value
C=C1[C@H]2O[C@]3([C@@H](C)C(=O)O[C@H]3[C@H]1Cl)[C@@H](OC(C)=O)[C@H]1[C@]3(CC[C@H](OC(C)=O)[C@]1(C)[C@@H](OC(C)=O)[C@@H]2OC(C)=O)CO3,inhibition,inactive
